Data as given in ChEMBL document CHEMBL3885881, “DrugMatrix”.

Species: Rattus norvegicus
Assay: DrugMatrix - Regimen: Daily Repeat
Format: toxicity, organism-based, Sprague-Dawley
Design: regimen Daily Repeat, gender Male, age 6-8 weeks
Conditions: in vivo, po, route oral GAVAGE, vehicle .5 % CMC; for ABSOLUTE BASOPHIL / ABSOLUTE EOSINOPHIL / ABSOLUTE LYMPHOCYTE / ABSOLUTE MONOCYTE / ABSOLUTE SEGMENTED NEUTROPHIL / BASOPHIL / EOSINOPHIL / ERYTHROCYTE COUNT / HEMATOCRIT / HEMOGLOBIN / LEUKOCYTE COUNT / LYMPHOCYTE / MEAN CORPUSCULAR HEMOGLOBIN / MEAN CORPUSCULAR HEMOGLOBIN CONCENTRATION / MEAN CORPUSCULAR VOLUME / MONOCYTE / NEUTROPHIL / NUCLEATED RED BLOOD CELLS / PLATELET COUNT: tissue Blood; for ALANINE AMINOTRANSFERASE / ALBUMIN / ALKALINE PHOSPHATASE / ASPARTATE AMINOTRANSFERASE / BLOOD UREA NITROGEN / CARBON DIOXIDE / CHLORIDE / CHOLESTEROL / CREATINE PHOSPHOKINASE / CREATININE / GLUCOSE / LACTATE DEHYDROGENASE / LIPASE / PHOSPHORUS / POTASSIUM / SODIUM / TOTAL BILIRUBIN / TOTAL PROTEIN / URIC ACID: tissue Plasma
[1] = 100 mg/kg, 120 h, dose level Low, time 5 day
[2] = 2500 mg/kg, 72 h, dose level High, time 3 day
[3] = 2500 mg/kg, 120 h, dose level High, time 5 day

NC(=O)CN1CCCC1=O
ABSOLUTE BASOPHIL [1]: 0 CELLS/uL
ABSOLUTE EOSINOPHIL [1]: 42 CELLS/uL
ABSOLUTE LYMPHOCYTE [1]: 9826.67 CELLS/uL
ABSOLUTE MONOCYTE [1]: 141.33 CELLS/uL
ABSOLUTE SEGMENTED NEUTROPHIL [1]: 823.33 CELLS/uL
BASOPHIL [1]: 0%
EOSINOPHIL [1]: 0.33%
ERYTHROCYTE COUNT [1]: 5.31 x10E6/uL
HEMATOCRIT [1]: 34.1%
HEMOGLOBIN [1]: 13.87 G/DL
LEUKOCYTE COUNT [1]: 10.83 x10E3/uL
LYMPHOCYTE [1]: 90.67%
MEAN CORPUSCULAR HEMOGLOBIN [1]: 26.1 pg
MEAN CORPUSCULAR HEMOGLOBIN CONCENTRATION [1]: 40.7 G/DL
MEAN CORPUSCULAR VOLUME [1]: 64.2 fL
MONOCYTE [1]: 1.33%
NEUTROPHIL [1]: 7.67%
NUCLEATED RED BLOOD CELLS [1]: 0 /100WBC
PLATELET COUNT [1]: 1439.67 x10E3/uL
ALANINE AMINOTRANSFERASE [1]: 57.33 u/L
ALBUMIN [1]: 4.37 G/DL
ALKALINE PHOSPHATASE [1]: 345.67 u/L
ASPARTATE AMINOTRANSFERASE [1]: 81.33 u/L
BLOOD UREA NITROGEN [1]: 14 mg/dL
CARBON DIOXIDE [1]: 31 mmol/L
CHLORIDE [1]: 101.33 MEQ/L
CHOLESTEROL [1]: 79 mg/dL
CREATINE PHOSPHOKINASE [1]: 221.33 u/L
CREATININE [1]: 0.2 mg/dL
GLUCOSE [1]: 137.33 mg/dL
LACTATE DEHYDROGENASE [1]: 190.33 u/L
LIPASE [1]: 10 u/L
PHOSPHORUS [1]: 12 mg/dL
POTASSIUM [1]: 6.54 MEQ/L
SODIUM [1]: 144.03 MEQ/L
TOTAL BILIRUBIN [1]: 0.23 mg/dL
TOTAL PROTEIN [1]: 6.17 G/DL
URIC ACID [1]: 1.2 mg/dL
ABSOLUTE BASOPHIL [2]: 0 CELLS/uL
ABSOLUTE EOSINOPHIL [2]: 0 CELLS/uL
ABSOLUTE LYMPHOCYTE [2]: 13503 CELLS/uL
ABSOLUTE MONOCYTE [2]: 41.67 CELLS/uL
ABSOLUTE SEGMENTED NEUTROPHIL [2]: 1822 CELLS/uL
BASOPHIL [2]: 0%
EOSINOPHIL [2]: 0%
ERYTHROCYTE COUNT [2]: 5.25 x10E6/uL
HEMATOCRIT [2]: 34.27%
HEMOGLOBIN [2]: 13.27 G/DL
LEUKOCYTE COUNT [2]: 15.37 x10E3/uL
LYMPHOCYTE [2]: 88.33%
MEAN CORPUSCULAR HEMOGLOBIN [2]: 25.33 pg
MEAN CORPUSCULAR HEMOGLOBIN CONCENTRATION [2]: 38.77 G/DL
MEAN CORPUSCULAR VOLUME [2]: 65.3 fL
MONOCYTE [2]: 0.33%
NEUTROPHIL [2]: 11.33%
NUCLEATED RED BLOOD CELLS [2]: 0 /100WBC
PLATELET COUNT [2]: 1334.33 x10E3/uL
ALANINE AMINOTRANSFERASE [2]: 49 u/L
ALBUMIN [2]: 3.97 G/DL
ALKALINE PHOSPHATASE [2]: 347.33 u/L
ASPARTATE AMINOTRANSFERASE [2]: 74 u/L
BLOOD UREA NITROGEN [2]: 20.67 mg/dL
CARBON DIOXIDE [2]: 31 mmol/L
CHLORIDE [2]: 102.67 MEQ/L
CHOLESTEROL [2]: 67.67 mg/dL
CREATINE PHOSPHOKINASE [2]: 351.33 u/L
CREATININE [2]: 0.18 mg/dL
GLUCOSE [2]: 147.33 mg/dL
LACTATE DEHYDROGENASE [2]: 239 u/L
LIPASE [2]: 9.67 u/L
PHOSPHORUS [2]: 12.57 mg/dL
POTASSIUM [2]: 6.21 MEQ/L
SODIUM [2]: 146 MEQ/L
TOTAL BILIRUBIN [2]: 0.2 mg/dL
TOTAL PROTEIN [2]: 5.7 G/DL
URIC ACID [2]: 1.4 mg/dL
ABSOLUTE BASOPHIL [3]: 0 CELLS/uL
ABSOLUTE EOSINOPHIL [3]: 37.33 CELLS/uL
ABSOLUTE LYMPHOCYTE [3]: 8603 CELLS/uL
ABSOLUTE MONOCYTE [3]: 37.33 CELLS/uL
ABSOLUTE SEGMENTED NEUTROPHIL [3]: 1055.67 CELLS/uL
BASOPHIL [3]: 0%
EOSINOPHIL [3]: 0.33%
ERYTHROCYTE COUNT [3]: 5.53 x10E6/uL
HEMATOCRIT [3]: 34.87%
HEMOGLOBIN [3]: 14.13 G/DL
LEUKOCYTE COUNT [3]: 9.73 x10E3/uL
LYMPHOCYTE [3]: 88.67%
MEAN CORPUSCULAR HEMOGLOBIN [3]: 25.6 pg
MEAN CORPUSCULAR HEMOGLOBIN CONCENTRATION [3]: 40.53 G/DL
MEAN CORPUSCULAR VOLUME [3]: 63.17 fL
MONOCYTE [3]: 0.33%
NEUTROPHIL [3]: 10.67%
NUCLEATED RED BLOOD CELLS [3]: 0 /100WBC
PLATELET COUNT [3]: 1291.33 x10E3/uL
ALANINE AMINOTRANSFERASE [3]: 61.33 u/L
ALBUMIN [3]: 4.27 G/DL
ALKALINE PHOSPHATASE [3]: 359.33 u/L
ASPARTATE AMINOTRANSFERASE [3]: 86.33 u/L
BLOOD UREA NITROGEN [3]: 18.33 mg/dL
CARBON DIOXIDE [3]: 28.67 mmol/L
CHLORIDE [3]: 101.67 MEQ/L
CHOLESTEROL [3]: 64 mg/dL
CREATINE PHOSPHOKINASE [3]: 310 u/L
CREATININE [3]: 0.16 mg/dL
GLUCOSE [3]: 160.33 mg/dL
LACTATE DEHYDROGENASE [3]: 149.33 u/L
LIPASE [3]: 7.33 u/L
PHOSPHORUS [3]: 12.07 mg/dL
POTASSIUM [3]: 5.7 MEQ/L
SODIUM [3]: 146.23 MEQ/L
TOTAL BILIRUBIN [3]: 0.17 mg/dL
TOTAL PROTEIN [3]: 6.17 G/DL
URIC ACID [3]: 1.67 mg/dL
